Assay results reported in PMC8573357, “Exploring Multifunctional Bioactive Components from Podophyllum sinense Using Multi-Target Ultrafiltration” (Frontiers in Pharmacology, 2021).

Molecular target: ACE2 (Homo sapiens, UniProt Q9BYF1)
Test: affinity ultrafiltration-HPLC/MS from crude extract against heat-inactivated control; identity by standard
Assay type: binding

Sequence of ACE2 (Q9BYF1 18-805): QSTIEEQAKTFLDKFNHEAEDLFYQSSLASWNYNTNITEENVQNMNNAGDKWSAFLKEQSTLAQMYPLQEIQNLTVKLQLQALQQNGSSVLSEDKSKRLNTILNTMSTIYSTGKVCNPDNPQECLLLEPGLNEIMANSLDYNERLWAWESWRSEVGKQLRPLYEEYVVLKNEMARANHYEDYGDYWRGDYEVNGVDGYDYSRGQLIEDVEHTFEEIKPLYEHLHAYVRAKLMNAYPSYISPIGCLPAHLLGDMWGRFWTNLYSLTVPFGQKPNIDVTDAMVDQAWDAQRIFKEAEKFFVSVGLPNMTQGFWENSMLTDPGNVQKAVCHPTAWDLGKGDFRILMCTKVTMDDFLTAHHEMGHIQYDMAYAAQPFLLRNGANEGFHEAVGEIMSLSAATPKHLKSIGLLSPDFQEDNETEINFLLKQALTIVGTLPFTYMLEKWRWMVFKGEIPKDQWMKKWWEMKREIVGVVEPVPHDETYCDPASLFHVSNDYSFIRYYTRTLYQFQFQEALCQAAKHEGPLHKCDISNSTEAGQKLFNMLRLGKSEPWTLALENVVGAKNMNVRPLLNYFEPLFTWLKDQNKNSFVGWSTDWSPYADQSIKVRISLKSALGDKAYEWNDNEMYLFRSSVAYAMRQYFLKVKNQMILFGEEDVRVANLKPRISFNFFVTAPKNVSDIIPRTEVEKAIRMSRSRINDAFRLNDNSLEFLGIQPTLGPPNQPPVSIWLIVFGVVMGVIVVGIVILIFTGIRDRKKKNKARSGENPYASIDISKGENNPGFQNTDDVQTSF

Row | EFs ^b (%) / ACE2 | Structure (SMILES)
1 | 3.10 % (enrichment factor) | O=c1c(O)c(-c2ccc(O)cc2)oc2cc(O)cc(O)c12 [Peak 7, Kaempferol]
2 | 3.68 % (enrichment factor) | COc1cc2c(O)c3c(c(-c4ccc5c(c4)OCO5)c2cc1OC)C(=O)OC3 [Peak 10, Diphyllin]
